{"source": "paper PMC12737022", "about": "“Evaluations of Sex Differences in Dosimetry in Rats Following Perfluorohexanesulfonamide (PFHxSA) Oral Exposure” (Toxics, 2025)", "key": {"[1]": {"experiment": "Plasma dosimetry of PFHxSA and PFHxS by targeted LC/MS/MS", "format": "in vivo, rat", "details": "for concentration at 24 h: Sprague Dawley (Crl:CD(SD)), rat, plasma, oral", "source_text": "(§1) The plasma and liver samples for this investigation were provided by Mutlu et al.. The study design, including detailed descriptions of animal handling, procedures for dosing, clinical observations, termination, and collection of tissues, is reported elsewhere and is consistent with the ARRIVE guidelines. Briefly, male and female Sprague Dawley (SD) rats (Crl:CD(SD)) (n = 48/sex, 96 total) were purchased from Charles River Laboratory (Raleigh, NC, USA) and allowed to acclimate for ≥5 days before initial dosing. Rats were 8–10 weeks old at the time of exposure. PFHxSA dosing solutions in corn oil were prepared on Day 0 and used over the course of the study. Rats of both sexes (n = 5/sex, dose, and time point, plus eight vehicle controls per sex) were dosed by oral gavage (5 mL/kg body weight) once daily for five days. […] The formulation concentrations decreased from 100 mg/kg/day at half-log10 intervals until the lowest dose level, which was a full log10 interval below the next higher dose, giving eight dose levels (0.01 to 100 mg/kg/day or 0.025 µmol/kg/day to 250 µmol/kg/day) in addition to vehicle controls. Doses were administered in randomized order within ± 1 h on each day of dosing. […] Rats were euthanized 24 h after the last dose. Blood was collected via cardiac puncture with tripotassium ethylene diamine tetraacetic acid (K3EDTA) as an anti-coagulant and centrifuged to collect cell-free plasma. Liver was collected and flash-frozen in liquid nitrogen. Liver, plasma, and dosing formulation samples were frozen at the USEPA Center for Computational Toxicology and Exposure (CCTE), Durham, NC, USA. Tissue samples (plasma and liver, n = 96 each) were stored at ≤−70 °C prior to extraction; dosing formulation samples (n = 9) were stored at −20 °C.\n(§2) Detailed information on solvents and standards used for targeted LC/MS/MS of PFHxSA and PFHxS can be found in SI Text S1 and SI Table S1. Plasma and liver preparations were modified from Conley et al.. Briefly, aliquots of plasma (25 µL) and liver (~10 mg) were spiked with PFOSA as an internal standard, as no isotope-labeled PFHxSA was available. Sample batches included up to 96 samples along with an MB, CCV, and LCS for QC. Commercial plasma (mixed-sex SD rat plasma) and liver (mixed-sex SD rat) were obtained from BioIVT (Westbury, NY, USA). Cold acetonitrile (ACN) with 0.1 M formic acid was used to precipitate proteins. Liver and plasma samples were prepared similarly, except that the livers were homogenized after solvent addition. Plasma samples were vortexed to mix before being chilled at −20 °C, after which samples were centrifuged at 5 °C and 10,000× g. Liver samples were chilled at −80 °C, then homogenized using an Omni International (Kennesaw, GA, USA) Bead Ruptor 24. Liver homogenates were centrifuged at 26,000× g and 5 °C. Supernatants from the extraction of both matrices were removed and stored at −20 °C until analysis. Refer to SI Text S4 for additional experimental details and information on calibration and QC parameters for quantitation of PFHxSA.\n(§3) Targeted LC/MS/MS of PFHxSA was performed on a Sciex 4000 QTRAP LC/MS/MS system operated in negative ESI mode with MRM scanning. A Restek (Bellefonte, PA, USA) Raptor Polar X (100 mm × 2 mm, 2.7 µm) column was used for liquid chromatography. Isocratic elution occurred over 10 min with a 30:70 ratio of mobile phase A (10 mM ammonium formate): mobile phase B (60:40 ACN: methanol). Both mobile phases included 0.05% formic acid. The LOQs for PFHxSA were 0.100 µM in plasma and 0.351 µM in liver. Additional details of the instrument method parameters for targeted analysis of PFHxSA are provided in SI Table S5. The MRM transitions for the PFHxSA method are provided in SI Table S6. […]"}, "[2]": {"experiment": "Liver dosimetry of PFHxSA and PFHxS by targeted LC/MS/MS", "format": "in vivo, rat", "details": "individual rats", "source_text": "as §1, §2, §3"}}, "note": "Values joined by “and” are separate entries in the source; they are usually repeats but may differ in a detail not shown here. Equal entries are not always repeated. Where two headings read alike, the source gives them in different places."}
{"smiles": "NS(=O)(=O)C(F)(F)C(F)(F)C(F)(F)C(F)(F)C(F)(F)C(F)(F)F", "note": "[PFHxSA, Perfluorohexanesulfonamide]", "values": [{"measurement": "Female PFHxSA plasma concentrations versus male plasma", "setting": "[1]; at 30 and 100 mg/kg/day", "result": "at least two-fold higher"}, {"measurement": "Female plasma PFHxSA levels higher than males, on average", "setting": "[1]; doses of 10 mg/kg/day and up", "result": 2.9, "unit": "fold"}, {"measurement": "concentration at 24 h", "setting": "[1]; female, 0.01 mg/kg/day, PFHxSA 0.01 mg/kg/day oral 5 days, female rats, mean ± SD, one sample estimated as half the LOQ, read-out: PFHxSA Female Plasma Conc.", "result": "0.117 ± 0.043", "unit": "µM"}, {"measurement": "concentration at 24 h", "setting": "[1]; female, 0.1 mg/kg/day, PFHxSA 0.1 mg/kg/day oral 5 days, female rats, mean ± SD, read-out: PFHxSA Female Plasma Conc.", "result": "1.1 ± 0.11", "unit": "µM"}, {"measurement": "concentration at 24 h", "setting": "[1]; female, 0.1 mg/kg/day, PFHxSA 0.1 mg/kg/day oral 5 days, female, individual rats, read-out: PFHxSA Female Plasma Conc.", "result": "1.03 µM and 410 ng/mL"}, {"measurement": "concentration at 24 h", "setting": "[1]; female, 0.3 mg/kg/day, PFHxSA 0.3 mg/kg/day oral 5 days, female rats, mean ± SD, read-out: PFHxSA Female Plasma Conc.", "result": "4.34 ± 1.6", "unit": "µM"}, {"measurement": "concentration at 24 h", "setting": "[1]; female, 1 mg/kg/day, PFHxSA 1 mg/kg/day oral 5 days, female rats, mean ± SD, read-out: PFHxSA Female Plasma Conc.", "result": "21.3 ± 9.1", "unit": "µM"}, {"measurement": "concentration at 24 h", "setting": "[1]; female, 3 mg/kg/day, PFHxSA 3 mg/kg/day oral 5 days, female rats, mean ± SD, read-out: PFHxSA Female Plasma Conc.", "result": "37.1 ± 13", "unit": "µM"}, {"measurement": "concentration at 24 h", "setting": "[1]; female, 10 mg/kg/day, PFHxSA 10 mg/kg/day oral 5 days, female rats, mean ± SD, read-out: PFHxSA Female Plasma Conc.", "result": "64.9 ± 17", "unit": "µM"}, {"measurement": "concentration at 24 h", "setting": "[1]; female, 10 mg/kg/day, PFHxSA 10 mg/kg/day oral 5 days, female, individual rats, read-out: PFHxSA Female Plasma Conc.", "result": "19600 ng/mL and 49 µM"}, {"measurement": "concentration at 24 h", "setting": "[1]; female, 30 mg/kg/day, PFHxSA 30 mg/kg/day oral 5 days, female rats, mean ± SD, read-out: PFHxSA Female Plasma Conc.", "result": "179 ± 66", "unit": "µM"}, {"measurement": "concentration at 24 h", "setting": "[1]; female, 100 mg/kg/day, PFHxSA 100 mg/kg/day oral 5 days, female, individual rats, read-out: PFHxSA Female Plasma Conc.", "result": "111000 ng/mL and 278 µM"}, {"measurement": "concentration at 24 h", "setting": "[1]; male, 0.01 mg/kg/day, PFHxSA 0.01 mg/kg/day oral 5 days, male rats, single rat above the LOQ, read-out: PFHxSA Male Plasma Conc.", "result": 0.102, "unit": "µM"}, {"measurement": "concentration at 24 h", "setting": "[1]; male, 0.01 mg/kg/day, PFHxSA 0.01 mg/kg/day oral 5 days, male, individual rats, read-out: PFHxSA Male Plasma Conc.", "result": "40.6 ng/mL and 102 nM"}, {"measurement": "concentration at 24 h", "setting": "[1]; male, 0.1 mg/kg/day, PFHxSA 0.1 mg/kg/day oral 5 days, male rats, mean ± SD, read-out: PFHxSA Male Plasma Conc.", "result": "0.796 ± 0.28", "unit": "µM"}, {"measurement": "concentration at 24 h", "setting": "[1]; male, 0.3 mg/kg/day, PFHxSA 0.3 mg/kg/day oral 5 days, male rats, mean ± SD, read-out: PFHxSA Male Plasma Conc.", "result": "4.26 ± 0.48", "unit": "µM"}, {"measurement": "concentration at 24 h", "setting": "[1]; male, 0.3 mg/kg/day, PFHxSA 0.3 mg/kg/day oral 5 days, male, individual rats, read-out: PFHxSA Male Plasma Conc.", "result": "1640 ng/mL and 3.49 µM"}, {"measurement": "concentration at 24 h", "setting": "[1]; male, 1 mg/kg/day, PFHxSA 1 mg/kg/day oral 5 days, male rats, mean ± SD, read-out: PFHxSA Male Plasma Conc.", "result": "11.4 ± 2.2", "unit": "µM"}, {"measurement": "concentration at 24 h", "setting": "[1]; male, 1 mg/kg/day, PFHxSA 1 mg/kg/day oral 5 days, male, individual rats, read-out: PFHxSA Male Plasma Conc.", "result": "4950 ng/mL and 12.4 µM"}, {"measurement": "concentration at 24 h", "setting": "[1]; male, 3 mg/kg/day, PFHxSA 3 mg/kg/day oral 5 days, male rats, mean ± SD, read-out: PFHxSA Male Plasma Conc.", "result": "27.1 ± 8", "unit": "µM"}, {"measurement": "concentration at 24 h", "setting": "[1]; male, 3 mg/kg/day, PFHxSA 3 mg/kg/day oral 5 days, male, individual rats, read-out: PFHxSA Male Plasma Conc.", "result": "9190 ng/mL and 23 µM"}, {"measurement": "concentration at 24 h", "setting": "[1]; male, 10 mg/kg/day, PFHxSA 10 mg/kg/day oral 5 days, male rats, mean ± SD, read-out: PFHxSA Male Plasma Conc.", "result": "56.8 ± 14", "unit": "µM"}, {"measurement": "concentration at 24 h", "setting": "[1]; male, 10 mg/kg/day, PFHxSA 10 mg/kg/day oral 5 days, male, individual rats, read-out: PFHxSA Male Plasma Conc.", "result": "17700 ng/mL and 44.3 µM"}, {"measurement": "concentration at 24 h", "setting": "[1]; male, 30 mg/kg/day, PFHxSA 30 mg/kg/day oral 5 days, male rats, mean ± SD, read-out: PFHxSA Male Plasma Conc.", "result": 81.2, "unit": "µM"}, {"measurement": "concentration at 24 h", "setting": "[1]; male, 30 mg/kg/day, PFHxSA 30 mg/kg/day oral 5 days, male, individual rats, read-out: PFHxSA Male Plasma Conc.", "result": "27700 ng/mL and 69.4 µM"}, {"measurement": "concentration at 24 h", "setting": "[1]; male, 100 mg/kg/day, PFHxSA 100 mg/kg/day oral 5 days, male rats, average, read-out: PFHxSA Male Plasma Conc.", "result": 62.1, "unit": "µM"}, {"measurement": "concentration at 24 h", "setting": "[1]; male, 100 mg/kg/day, PFHxSA 100 mg/kg/day oral 5 days, male, individual rats, read-out: PFHxSA Male Plasma Conc.", "result": "29500 ng/mL and 74 µM"}, {"measurement": "PFHxSA Female Liver Conc. (wet weight)", "setting": "[2]; PFHxSA 0.1 mg/kg/day oral 5 days", "result": "0.491 µM and 0.599 µM and 0.338 µM and 0.434 µM"}, {"measurement": "PFHxSA Male Liver Conc. (wet weight)", "setting": "[2]; PFHxSA 0.1 mg/kg/day oral 5 days, male", "result": "0.191 ng/mg and 0.0842 ng/mg and 0.479 µM and 0.211 µM and 0.156 ng/mg and 0.391 µM and 0.746 µM and 0.503 µM and 0.298 ng/mg and 0.201 ng/mg"}, {"measurement": "PFHxSA Female Liver Conc. (wet weight)", "setting": "[2]; PFHxSA 0.3 mg/kg/day oral 5 days", "result": "1.47 µM and 1.96 µM and 1.26 µM and 1.74 µM"}]}
